Measurements taken from patent US20240093184A1, “CHEMICALLY REVERSIBLE 2`-OH ACYLATION PROTECTS RNA FROM HYDROLYTIC AND ENZYMATIC DEGRADATION” (The Board of Trustees of the Leland Stanford Junior …, priority 2022, published 2024).
Each block holds one compound with its values, some of them ahead of it.

Assays:
EMX1-sgRNA [1] = assay: In vitro DNA cleavage function of CRISPR sgRNA; assay type: biochemical; details: Tris for DMG-cloaked sgRNA, DABCO for alkoxy acylimidazole-cloaked sgRNA; neutral pH, 11 hours
[2] = Serum stability of cloaked EMX1-sgRNA; assay type: in vitro ADME; details: 105nt sgRNA
Description: (§1) In this example, we systematically characterized how acylimidazoles affect enzymatic degradation of EMX1-sgRNA in serum, a 105nt single guide RNA (sgRNA) for CRISPR-Cas9 gene editing (FIG. 7). […] Among all reagents, DMG acylimidazole enhanced sgRNA stability the most, by up to 14-fold. […] Although such protection most likely extends to other RNAs, the secondary structures of RNA may influence the magnitude of enhancement in enzymatic stability. […] This is likely due in part to different RNA motifs having distinct “hotspots” for enzymatic degradation, which may not be completely shielded by cloaking. Taken together, 2′-acylation effectively enhances the serum stability of RNA, the magnitude of which may be influenced by the length and structure of the underlying RNA.

eGFP-mRNA [3] = assay: Accelerated RNA aging of cloaked eGFP-mRNA in RNase-free water at 37° C., capillary electrophoresis; assay type: physicochemical; details: for resistance of cloaked eGFP-mRNA to thermal degradation: equivalently cloaked (˜50% of unpaired accessible 2′-OH); for extension of lifespan of eGFP-mRNA: extensive cloaking (>90% of accessible 2′-hydroxyls)
Experimental: (§2) In this example, the capacity to use this RNA cloaking strategy to stabilize RNA in solution was assessed with accelerated RNA aging experiments by incubating eGFP-mRNA species with or without cloaking with NAIN3 ((2-(azidomethyl)pyridin-3-yl)(1H-imidazol-1-yl)methanone) in RNase-free water at a mildly elevated temperature (37° C.) (FIG. 1). We then evaluated the lifespan of the mRNA by measuring the relative fraction of remaining fully intact RNA over time. […] Acylation-induced stabilization was further tested on a second, longer mRNA. […] No depurination of adenosine and […] was observed during the span of degradation experiments (FIG. 2). See, for example, FIG. 1.
(§3) We screened these acylimidazole reagents for modulation of RNA thermal degradation by performing accelerated RNA aging experiments with eGFP-mRNA aliquots that were equivalently cloaked (˜50% of unpaired accessible 2′-OH). Representative CE data are shown in FIG. 1 for cloaked eGFP-mRNA, which resisted thermal degradation across broad substituent types. […] Noting subtle differences in the stabilization, we hypothesized that the varying protection afforded by the reagents might arise from differential hydrolytic stability of their adducts; this was later confirmed (see below). […] To compensate for this, more extensive cloaking by N,N-dimethylglycine (DMG) acylimidazole (>90% of unpaired accessible 2″-OH) extended the lifespan of eGFP-m RNA by ˜5-fold.

EMX1-sgRNA [4] = assay: Storage of cloaked EMX1-sgRNA in frozen RNase-free water (−80° C.); assay type: physicochemical; details: 9 months
Experimental: FIG. 4. Integrity of cloaked EMX1-sgRNA (105 nt) upon incubation in frozen RNase-free water after 9 months (−80° C.).
as §3

18nt model RNA = assay: Nucleophile screen for removal (uncloaking) of 2′-acyl adducts; assay type: physicochemical; details: for reversibility of acyl adducts by nucleophiles: 37° C., neutral pH
Description: Nucleophiles are known to catalyze ester hydrolysis; examples include the use of imidazole and pyridine as nucleophilic catalysts. To restore biological activity of RNAs after cloaking-based stabilization, we tested uncloaking strategies to promote rapid hydrolysis of 2′-carboxyl esters with weakly basic nucleophiles (FIG. 5). […] In the library design, we avoided the use of strong Bronsted bases to prevent hydrolytic RNA backbone cleavage. Nucleophiles were screened against the 18nt model RNA containing acyl groups of each type at 37° C. and neutral pH, which identified at least 9 sensitive acylation-nucleophile pairs that promoted >50% removal of adducts within 2 hours. […] Other adducts can also be rapidly removed with designated nucleophiles, with half-lives for reversal ranging from 1.1 to 1.8 hours.
For 2′-acyl adduct by DMG, the effects of the biocompatible tris(hydroxymethyl) aminomethane (Tris) buffer alone were substantial, consistent with previous reports that Tris can hydrolyze active esters.

HEK293 = assay: Translation of cloaked eGFP-mRNA in HEK293 cells; assay type: cell-based, human
RNase A = assay: Nucleolytic degradation of cloaked eGFP-mRNA by RNase A; assay type: biochemical
Description: (§4) In this example, we systemically surveyed protective effects of cloaking with representative RNases and biofluids, recapitulating the common enzymatic conditions RNAs encounter during storage, handling, and application (FIG. 7). […] We next evaluated whether cloaking could ameliorate mRNA degradation in fetal bovine serum (FBS), a frequent component of eukaryotic cell culture (FIG. 8). […] This is likely due in part to DMG acylimidazole retaining RNA secondary structures and helicity for maximum resistance to RNases. Acylating reagents also protect eGFP-mRNA against FBS to varying degrees. […] Thus, 2′-acylation provides context-dependent protection of long RNA (e.g., mRNA) against ribonucleolytic enzymes. Reagent DMG acylimidazole effectively shields mRNA against a broad range of RNases.

eGFP-mRNA [5] = assay: In vitro translation assay of cloaked and uncloaked eGFP-mRNA; assay type: biochemical
Description: introduced into the coding region of mRNAs. Thus, we investigated whether Tris could restore the translation of a model eGFP-mRNA densely cloaked (50%) by DMG acylimidazole. […] To explore the generality of this observation, we applied the methods to an in vitro transcribed CRISPR sgRNA. Acylation of EMX1-sgRNA by other reagents blocked its cleavage function (<10%) in vitro.

[6] = Serum stability of cloaked RNA motifs; assay type: in vitro ADME
Description: as §1

RNase T1 = assay: Nucleolytic degradation of cloaked eGFP-mRNA by RNase T1; assay type: biochemical
Description: as §4

SW480 = assay: Translation of cloaked eGFP-mRNA in SW480 cells; assay type: cell-based, human
HeLa cells [7] = assay: Translation of cloaked d2GFP-mRNA in HeLa cells; assay type: cell-based, human
Experimental: We therefore adopted a reporter system employing mRNA encoding a destabilized green fluorescent protein d2GFP, where both mRNA and protein degradation occur with similar half-lives of ˜2-3 hours. We observed that the translation of unprotected d2GFP-mRNA quickly descended after peaking. […] Taken together, RNA cloaking by DMG derivative DMG acylimidazole effectively extended d2GFP-mRNA functional lifespan and translation, providing insights for the potential use of reversible 2′-acylation as a modulator of mRNA translation kinetics.

Fluc-mRNA = assay: Accelerated RNA aging of cloaked Fluc-mRNA in water at 37° C.; assay type: physicochemical; details: extensive cloaking (>90% of unpaired 2′-hydroxyls), six days in water
Experimental: as §2

HeLa cells [8] = assay: Translation of cloaked eGFP-mRNA in transfected HeLa cells (flow cytometry, fluorescence imaging); assay type: cell-based, human; details: intermediately cloaked, over two days
Description: Intact cells maintain high intracellular concentrations of nucleophilic species such as cysteine and glutathione. […] In this example, we employed cloaked mRNAs encoding fluorescent reporter proteins. Indeed, we observed the emergence of strong green fluorescence signals by flow cytometry over a period of two days in HeLa cells transfected with intermediately DMG-cloaked eGFP-mRNA. […] Moreover, the delayed translation of cloaked mRNAs reflects an initial uncloaking step, which when occurring over time may provide slow-release translation kinetics—reducing an early expression peak and extending the duration of translation (see below). Finally, we also observed that translation of eGFP-mRNA with alkoxyl acyl adduct can also be restored in cells, highlighting possible control over mRNA release kinetics by modification of the acyl group.

[9] = system: mRNAs (TBP, PPIE, and PSMB6); details: HEK293 total RNA cloaked with DMG acylimidazole; Tris alone, neutral pH, 24 h
Experimental: For instance, the ability of a single 2′-acylation to halt reverse transcriptase during primer extension necessitates efficient 2′-deacylation to avoid premature reverse transcription termination. […] We isolated and cloaked total cellular RNA from HEK293 cells with DMG acylimidazole, and recovery efficiency was evaluated for three representative mRNAs by the reverse transcription efficiencies. […] Recent experiments have shown that local 2′-acylation can terminate translation when

- extension of lifespan of eGFP-mRNA (eGFP-mRNA [3]; RNase-free water, 37° C.): -7 fold
- extension of lifespan of intact eGFP-mRNA (eGFP-mRNA [3]; intermediate cloaking (˜50% of unpaired 2′-hydroxyls), RNase-free water, 37° C.): -3 fold
- reversibility of acyl adducts by nucleophiles (18nt model RNA): can be reversed via Staudinger reaction
Compound: [N-]=[N+]=NCc1ncccc1C(=O)n1ccnc1 [NAIN3, (2-(azidomethyl)pyridin-3-yl)(1H-imidazol-1-yl)methanone, reference compound]
- backbone cleavage of Fluc-mRNA (Fluc-mRNA): almost completely blocked backbone cleavage
- damage to the nucleobases (deamination of adenine and cytosine) (eGFP-mRNA [3]; within the timespan of the aging experiment): No damage to the nucleobases
- translation of cloaked eGFP-mRNA in cells (HeLa cells [8]): translation remained strongly inhibited

- resistance of cloaked eGFP-mRNA to thermal degradation (eGFP-mRNA [3]): attenuated RNA hydrolysis
- reversal of 2′-acyl adduct by Tris buffer alone (18nt model RNA): not reversed by Tris
Compound: CC(=O)n1ccnc1 [acetylimidazole]
- reversibility of acyl adducts by nucleophiles (18nt model RNA): relatively resistant to reversal by nonbasic nucleophiles

- resistance of cloaked eGFP-mRNA to thermal degradation (eGFP-mRNA [3]): providing the most stability
Compound: CCOCC(=O)n1ccnc1 [ethoxyacetyl compound]

Further lines, the compound ahead of its results:

Compound: C1CN2CCN1CC2 [DABCO, 1,4-diazabicyclo[2.2.2]octane]
- restoration of DNA cleavage of cloaked sgRNA (EMX1-sgRNA [1]): fully restored DNA cleavage

Compound: CN(C)CC(=O)n1ccnc1 [DMG acylimidazole, N,N-dimethylglycine (DMG) acylimidazole]
- increase in serum stability of EMX1-sgRNA [2]: up to 14 fold
- resistance of cloaked eGFP-mRNA to thermal degradation (eGFP-mRNA [3]): slightly reduced enhancement of RNA thermal stability
- extension of lifespan of eGFP-mRNA (eGFP-mRNA [3]; RNase-free water, 37° C.): ~5 fold
- stability of in vitro transcribed EMX1-sgRNA on storage (EMX1-sgRNA [4]): enhanced stability
- reversal of 2′-acyl adduct by Tris buffer alone (18nt model RNA): substantial
- recovery of eGFP expression (HEK293): confirmed generality
- protection of eGFP-mRNA from nucleolytic degradation by RNase A (RNase A): effectively shielded
- translation of cloaked eGFP-mRNA in vitro (eGFP-mRNA [5]; eGFP-mRNA densely cloaked (50%)): strongly blocked the translation
- serum stability of a bulge loop RNA motif ([6]; bulge loop): increases the serum stability
- serum stability of an internal loop motif ([6]; internal loop): minimal enhancement
- serum stability of a structurally complex pseudoknot ([6]; pseudoknot): increases the serum stability
- protection of eGFP-mRNA from nucleolytic degradation by RNase T1 (RNase T1): effectively shielded
- recovery of eGFP expression (SW480): confirmed generality
- enhancement of total protein output of d2GFP-mRNA (HeLa cells [7]; HeLa cells, versus unprotected d2GFP-mRNA): 31%
- duration of sustained d2GFP-mRNA translation at its peak level (HeLa cells [7]; intermediate cloaking, HeLa): ~10 h

Compound: O=C(c1cccnc1)n1ccnc1 [nicotinic acid acylimidazole]
- reversibility of acyl adducts by nucleophiles (18nt model RNA): relatively resistant to reversal by nonbasic nucleophiles

Compound: tris(hydroxymethyl)aminomethane
- recovery of reverse transcription of cloaked mRNAs [9]: reinstated the reverse transcription
- restoration of eGFP expression (eGFP-mRNA [5]; DMG acylimidazole-cloaked eGFP-mRNA, Tris, pH=7.5 at 37° C.): up to 87%
- restoration of DNA cleavage of cloaked sgRNA (EMX1-sgRNA [1]): fully restored DNA cleavage
